One may read the fold induction as the signal under treatment as a multiple of the control signal. The term inhibition denotes the share of the control response that was lost under treatment.

Each structure is given as a SMILES string.

A short description of series [1]: Metabolism test using human liver microsome fractions. Type of series: in vitro ADME. Conditions: human liver microsomes, test compound 10 μmol/L, NADPH and UDP-glucuronic acid, 37° C. The method, boiled down:
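Human or monkey liver microsomes (1 mg protein) with NADPH-regenerating system plus UDP-glucuronic acid/UGT mix, 37 °C; compound at 10 μmol/L final. Samples at 0–30 min quenched in acetonitrile, UV-HPLC; elimination rate (pmol/min/mg-P) from linear slope of residual amount over time.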
On the technique in general: Liver microsomes are a subcellular fraction often used to study metabolism.

Series [2] relates to NQO1. The experiment in a line: NQO1 expression induction test in mouse kidney (single administration). As to conditions: Mus musculus, po, 6 h, BALB/c mouse kidney, 6 hours after administration, ratio to control group. Type of series: in vivo. The essentials: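 Female BALB/c mice received a single oral dose of compound in 0.5% methylcellulose, with untreated mice as controls. Six hours later, left-kidney NQO1 mRNA was measured by SYBR real-time RT-PCR normalised to GAPDH. Induction was expressed as the ratio of mean treated to mean control expression.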

The target of series [3] is T1, GST fusion human Keap1 (amino acid residue: 325-624) protein (Homo sapiens, UniProt Q14145).
T1 construct: GST fusion human Keap1 (amino acid residue: 325-624) protein; purchased Protein tech Ag0779
T1 sequence (Q14145 325-624): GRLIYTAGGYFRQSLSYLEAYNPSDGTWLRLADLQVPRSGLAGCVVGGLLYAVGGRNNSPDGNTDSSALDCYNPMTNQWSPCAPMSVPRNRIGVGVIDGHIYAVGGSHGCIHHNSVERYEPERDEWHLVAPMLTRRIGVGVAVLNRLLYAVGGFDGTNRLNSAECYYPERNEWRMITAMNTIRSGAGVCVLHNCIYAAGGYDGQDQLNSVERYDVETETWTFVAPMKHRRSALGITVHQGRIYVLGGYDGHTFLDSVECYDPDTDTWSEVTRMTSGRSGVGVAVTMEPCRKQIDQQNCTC
The experiment in a line: Keap1-Nrf2 binding inhibition test (fluorescence polarization). Conditions: compound concentration of 100 nM; read-out: inhibition rate. The essentials: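 Fluorescence polarization with FITC-labelled Nrf2 peptide (FITC-Ahx-LDEETGEFL-NH2) and GST-human Keap1 (325-624) in 20 mM Tris pH 7.5, 150 mM NaCl, 0.05% Tween 20, 5 mM DTT, BSA; 30 min at room temperature, ex 482/em 530 nm. Percent inhibition at 100 nM compound, Keap1-free wells = 100%.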

For series [4], the system named is NQO1. The experiment in a line: NQO1 enzyme induction test (in vitro) in Hepa1c1c7 cells. It is filed as cell-based. Conditions: Mus musculus, Hepa-1c1c7, 48 h, concentration to elevate the NQO1 activity by 1.5 times, about 48 hours, read-out: EC150. As for the experimental part:
Each NQO1 assay was carried out by modifying a known method (Anal Biochem 1998; 169: 328-, Methods Enzymol 2004; 382: 243-). Hepa1c1c7 cells (mouse hepatocyte line manufacture by DS Pharma Biomedical Co., Ltd., REF. No. 95090613) were cultured (5% CO2, 37° C.). The cells were cultured in MEMα (manufactured by FUJIFILM Wako Pure Chemical Corporation, REF. 135-15175) medium comprising 10% FBS (manufactured by GIBCO, REF. 10082) and […]/streptomycin/amphotericin B (manufactured by GIBCO, REF. 15240), and dispensed into a 96 well plate (manufactured by Costar, REF. 3610) at 2.0×10^3 cells/well. On the next day, test compound (final concentration of […]: 0.1%) dissolved into DMSO (manufactured by FUJIFILM Wako Pure Chemical Corporation, REF. 043-07216) was added to each well, and the plate was further cultured for about 48 hours.
A cell lysate manufactured by Cell signaling Technology, Inc. (REF. 9803) with the addition of a Protease Inhibitor manufactured by Roche Diagnostics K.K. (REF. 11-873580001) was used. A reaction solution (which is a solution comprising trishydrochloric acid (25 mM), albumin […], Tween-20 (0.01%), glucose-6-phosphate dehydrogenase (2 U/mL), flavin-adenine dinucleotide (5 μM), glucose-6-phosphate (1 μM), nicotinamide adenine dinucleotide phosphate (30 μM), 3-(4,5-dimethyl-2-thiazolyl)-2,5-diphenyltetrazolium bromide (MTT) (0.03%), and menadione (50 μM)), and a stop solution (which is a solution comprising dicumarol (0.3 mM) and potassium dihydrogen phosphate (5 mM), pH 7.4) were prepared. After the medium was removed, cell lysate (50 μL) was added thereto, and the resulting mixture was shaken at room temperature for 20 minutes. The reaction solution (200 μL) was added thereto, and the resulting mixture was left to stand at room temperature for 5 minutes. The stop solution (50 μL) was added thereto, and absorbance at 540 nm (reference 750 nm) was measured.
Cell number was measured by Cell Titer Glo assay (manufactured by Promega Corporation, REF. G9242) by using another plate prepared according to the same conditions as those described above, and correction of absorbance was carried out. The test result was analyzed by Excel, and the EC150 value which is the concentration to elevate the NQO1 activity by 1.5 times was calculated.

For `CC[C@@H]1CN(Cc2cc(C(c3ccc4c(nnn4C)c3C)C(C)(C)C(=O)O)ccc2C)Cc2cc3cccc(C)c3nc2O1` (stereo partly drawn) [Example 13-(b), 3-(1,4-dimethyl-1H-benzo[d][1,2,3]triazol-5-yl)-3-(3-(((R)-2-ethyl-10-methyl-2,3-dihydro-[1,4]oxazepino[7,6-b]quinolin-4 (5H)-yl)methyl)-4-methylphenyl)-2,2-dimethylpropanoic Acid], in series [1], the Human metabolic rate result was “E (metabolic rate≥250 pmol/min/mg protein)”. Moreover, the fold induction at 30 mg/kg with NQO1 [2] is 3 to 6. Moreover, in series [3], the inhibition at 0.1 µM is no less than 50%. Also, the EC (1.5-fold NQO1 activity) in the series on NQO1 [4] was 0.0005 to 0.005 µM.

As for `CC[C@@H]1CN(Cc2cc(C(c3ccc4c(nnn4C)c3C)C(C)(C)C(=O)O)ccc2C)Cc2cc3ccsc3cc2O1` (stereo partly drawn) [Example 72-(b), 3-(1,4-dimethyl-1H-benzo[d][1,2,3]triazol-5-yl)-3-(3-(((R)-2-ethyl-2,3-dihydrothieno[2′,3′:4,5]benzo[1,2-f][1,4]oxazepin-4(5H)-yl)methyl)-4-methylphenyl)-2,2-dimethylpropanoic Acid], in series [1], the Human metabolic rate entry is “A (metabolic rate<100 pmol/min/mg protein)”. For the same compound, the fold induction at 20 mg/kg in the series on NQO1 [2] was no more than 3. In addition, the inhibition at 0.1 µM in series [3] is no less than 50%. For the same compound, the EC (1.5-fold NQO1 activity) with NQO1 [4] lay within 0.005 to 0.05 µM.

For the compound `CC[C@@H]1CN(Cc2cc(C(c3ccc4c(nnn4C)c3C)C3(C(=O)O)CCC3)ccc2C)Cc2cc3ncccc3cc2O1` (stereo partly drawn) [Example 84-(b), 1-((1,4-dimethyl-1H-benzo[d][1,2,3]triazol-5-yl) (3-(((R)-2-ethyl-2,3-dihydro-[1,4]oxazepino[7,6-g]quinolin-4 (5H)-yl)methyl)-4-methylphenyl)methyl)cyclobutane-1-carboxylic Acid], the Human metabolic rate result in series [1] is “C (150≤metabolic rate<200 pmol/min/mg protein)”. Moreover, in the series on NQO1 [2], the fold induction at 20 mg/kg was greater than 6. Besides, the inhibition at 0.1 µM in series [3] is no less than 50%. Also, the EC (1.5-fold NQO1 activity) with NQO1 [4] was in the range of 0.0005 to 0.005 µM.

In the case of `CC[C@@H]1CN(Cc2cc(C(c3ccc4c(nnn4C)c3C)C(C)(C)C(=O)O)ccc2C)Cc2cnc3ccccc3c2O1` (stereo partly drawn) [Example 26-(b), 3-(1,4-dimethyl-1H-benzo[d][1,2,3]triazol-5-yl)-3-(3-(((R)-2-ethyl-2,3-dihydro-[1,4]oxazepino[6,7-c]quinolin-4(5H)-yl)methyl)-4-methylphenyl)-2,2-dimethylpropanoic Acid], in series [1], the Human metabolic rate result is “E (metabolic rate≥250 pmol/min/mg protein)”. Further, the fold induction at 30 mg/kg with NQO1 [2] was greater than 6. The inhibition at 0.1 µM in series [3] was no less than 50%. Also, the EC (1.5-fold NQO1 activity) in the series with NQO1 [4] lay in the range of 0.0005 to 0.005 µM.

Turning to `CC[C@@H]1CN(Cc2cc(C(c3ccc4c(nnn4C)c3C)C(C)(C)C(=O)O)ccc2C)Cc2ccc3cnccc3c2O1.O=C(O)C(F)(F)F.O=C(O)C(F)(F)F` (stereo partly drawn) [Example 55-(b), 3-(1,4-dimethyl-1H-benzo[d][1,2,3]triazol-5-yl)-3-(3-(((R)-2-ethyl-2,3-dihydro-[1,4]oxazepino[7,6-f]isoquinolin-4(5H)-yl)methyl)-4-methylphenyl)-2,2-dimethylpropanoic Acid Ditrifluoroacetate], the Human metabolic rate entry in series [1] is “C (150≤metabolic rate<200 pmol/min/mg protein)”. The fold induction at 30 mg/kg in the series on NQO1 [2] was no more than 3. Moreover, the inhibition at 0.1 µM in series [3] was no less than 50%. The EC (1.5-fold NQO1 activity) with NQO1 [4] lay within 0.0005 to 0.005 µM.

As for `Cc1ccc(C(c2ccc3c(nnn3C)c2C)C(C)(C)C(=O)O)cc1CN1Cc2cc3ncccc3cc2OC(C)(C)C1` (centres unmarked) [Example 60-(b), 3-(1,4-dimethyl-1H-benzo[d][1,2,3]triazol-5-yl)-3-(3-((2,2-dimethyl-2,3-dihydro-[1,4]oxazepino[7,6-g]quinolin-4 (5H)-yl)methyl)-4-methylphenyl)-2,2-dimethylpropanoic Acid], the Human metabolic rate entry in series [1] was “D (200≤metabolic rate<250 pmol/min/me protein)”. The fold induction at 30 mg/kg in the series on NQO1 [2] was no more than 3. Also, in series [3], the inhibition at 0.1 µM was no less than 50%. Besides, in the series with NQO1 [4], the EC (1.5-fold NQO1 activity) lay within 0.0005 to 0.005 µM.

Regarding `Cc1ccc(C(c2ccc3c(nnn3C)c2C)C(C)(C)C(=O)O)cc1CN1Cc2cc3ncccc3cc2OC2(CC2)C1` (centres unmarked) [Example 76-(b), 3-(3-((3′H-spiro[cyclopropane-1,2′-[1,4]oxazepino[7,6-g]quinoline]-4′ (5′H)-yl)methyl)-4-methylphenyl)-3-(1,4-dimethyl-1H-benzo[d][1,2,3]triazol-5-yl)-2,2-dimethylpropanoic Acid], in series [1], the Human metabolic rate result was “B (100≤metabolic rate<150 pmol/min/mg protein)”. In addition, the fold induction at 20 mg/kg in the series with NQO1 [2] is greater than 6. Further, in series [3], the inhibition at 0.1 µM is no less than 50%. The EC (1.5-fold NQO1 activity) in the series with NQO1 [4] lay in the range of 0.0005 to 0.005 µM.

With `CC[C@@H]1CN(Cc2cc(C(c3ccc4c(nnn4C)c3C)C(C)(C)C(=O)O)ccc2C)Cc2ccc3c(c2O1)CCC3` (stereo partly drawn) [Example 6-(b), 3-(1,4-dimethyl-1H-benzo[d][1,2,3]triazol-5-yl)-3-(3-(((R)-2-ethyl-2,3,5,8,9,10-hexahydro-4H-indeno[5,4-f][1,4]oxazepin-4-yl)methyl)-4-methylphenyl)-2,2-dimethylpropanoic Acid], the Human metabolic rate entry in series [1] is “B (100≤metabolic rate<150 pmol/min/mg protein)”. The fold induction at 30 mg/kg in the series with NQO1 [2] was in the range of 3 to 6. The inhibition at 0.1 µM in series [3] is no less than 50%. Besides, the EC (1.5-fold NQO1 activity) with NQO1 [4] is 0.005 to 0.05 µM.

For the compound `CC[C@@H]1CN(Cc2cc(C(c3ccc4c(nnn4C)c3C)C(C)(C)C(=O)O)ccc2C)CC2=C(C=CC3=NCCCN32)O1` (stereo partly drawn) [Example 23, 3-(1,4-dimethyl-1H-benzo[d][1,2,3]triazol-5-yl)-3-(3-(((R)-4-ethyl-1,3,4,9,10,11-hexahydro-2H-pyrimido[1′,2′:1,6]pyrido[2,3-f][1,4]oxazepin-2-yl)methyl)-4-methylphenyl)-2,2-dimethylpropanoic Acid], in the series with NQO1 [2], the fold induction at 30 mg/kg was no more than 3. Further, in series [3], the inhibition at 0.1 µM was no less than 50%. The EC (1.5-fold NQO1 activity) with NQO1 [4] is 0.05 to 0.5 µM.

For the compound `CC[C@@H]1CN(Cc2cc(C(c3ccc4c(nnn4C)c3C)C(C)(C)C(=O)O)ccc2C)Cc2ccc3ccccc3c2O1` (stereo partly drawn) [Example 24-(b), 3-(1,4-dimethyl-1H-benzo[d][1,2,3]triazol-5-yl)-3-(3-(((R)-2-ethyl-2,3-dihydronaphtho[2,1-f][1,4]oxazepin-4(5H)-yl)methyl)-4-methylphenyl)-2,2-dimethylpropanoic Acid], the fold induction at 30 mg/kg with NQO1 [2] is greater than 6. Also, in series [3], the inhibition at 0.1 µM is no less than 50%. In addition, in the series on NQO1 [4], the EC (1.5-fold NQO1 activity) fell in the range of 0.005 to 0.05 µM.

Turning to `CC[C@@H]1CN(Cc2cc(C(c3ccc4c(nnn4C)c3C)C(C)(C)C(=O)O)ccc2C)Cc2ccc3ccncc3c2O1` (stereo partly drawn) [Example 62, 3-(1,4-dimethyl-1H-benzo[d][1,2,3]triazol-5-yl)-3-(3-(((R)-2-ethyl-2,3-dihydro-[1,4]oxazepino[6,7-h]isoquinolin-4 (5H)-yl)methyl)-4-methylphenyl)-2,2-dimethylpropanoic Acid], the fold induction at 30 mg/kg with NQO1 [2] was no more than 3. The inhibition at 0.1 µM in series [3] was no less than 50%. Also, the EC (1.5-fold NQO1 activity) in the series with NQO1 [4] lay in the range of 0.0005 to 0.005 µM.

Regarding `CC[C@@H]1CN(Cc2cc(C(c3ccc4c(nnn4C)c3C)C(C)(C)C(=O)O)ccc2C)Cc2ccc3cccnc3c2O1` (stereo partly drawn) [Example 27-(b), 3-(1,4-dimethyl-1H-benzo[d][1,2,3]triazol-5-yl)-3-(3-(((R)-2-ethyl-2,3-dihydro-[1,4]oxazepino[6,7-h]quinolin-4 (5H)-yl)methyl)-4-methylphenyl)-2,2-dimethylpropanoic Acid], in the series with NQO1 [2], the fold induction at 30 mg/kg is no more than 3. Also, the inhibition at 0.1 µM in series [3] was no less than 50%. The EC (1.5-fold NQO1 activity) with NQO1 [4] lay within 0.005 to 0.05 µM.

Values taken from patent publication US12559504B2, “Benzotriazole derivative” (UBE CORPORATION, priority 2019, dated 2026).
